Results: PubChem BioAssay AID2060601 (Molecular Pharmacology Branch, DTP, NCI, 2025)
Several values for one entry are separate records, joined by “and”; a condition that tells them apart may be missing. Equal values may be shown once.

Tested on: 874868-142-R-J2-PDC complex spheroids, growth % test/control
Experiment: Anticancer human tumor 874868-142-R-J2-PDC patient-derived head and neck squamous carcinoma cell line growth inhibition [CLK]
Conditions: for viability, T/C: stronger effect = lower value; active = viability on the fitted dose curve at most 10% of control; inactive = the rest
How it was run: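 Multi-cell-type spheroids combined patient-derived tumor cells with HUVEC endothelial cells and human mesenchymal stem cells. Paired agents were dosed in half-log steps down from about clinical Cmax, or from 10 microM where Cmax was unknown.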

[1] = curve of first compound, second compound 0.0316 µM
[2] = curve of first compound, second compound 0.1 µM
[3] = curve of first compound, second compound 0.316 µM
[4] = curve of first compound, second compound 1 µM
[5] = curve of first compound, second compound 3.16 µM
[6] = curve of first compound, second compound 10 µM
[7] = second compound 0.0316 µM, first compound 0.0316 µM
[8] = second compound 0.0316 µM, first compound 0.1 µM
[9] = second compound 0.1 µM, first compound 0.0316 µM
[10] = second compound 0.1 µM, first compound 0.1 µM
[11] = second compound 0.316 µM, first compound 0.0316 µM
[12] = second compound 0.316 µM, first compound 0.1 µM
[13] = second compound 1 µM, first compound 0.0316 µM
[14] = second compound 1 µM, first compound 0.1 µM
[15] = second compound 3.16 µM, first compound 0.0316 µM
[16] = second compound 3.16 µM, first compound 0.1 µM
[17] = second compound 10 µM, first compound 0.0316 µM
[18] = second compound 10 µM, first compound 0.1 µM
[19] = second compound 0.0316 µM, first compound 0.316 µM
[20] = second compound 0.0316 µM, first compound 1 µM
[21] = second compound 0.0316 µM, first compound 3.16 µM
[22] = second compound 0.0316 µM, first compound 10 µM
[23] = second compound 0.1 µM, first compound 0.316 µM
[24] = second compound 0.1 µM, first compound 1 µM
[25] = second compound 0.1 µM, first compound 3.16 µM
[26] = second compound 0.1 µM, first compound 10 µM
[27] = second compound 0.316 µM, first compound 0.316 µM
[28] = second compound 0.316 µM, first compound 1 µM
[29] = second compound 0.316 µM, first compound 3.16 µM
[30] = second compound 0.316 µM, first compound 10 µM
[31] = second compound 1 µM, first compound 0.316 µM
[32] = second compound 1 µM, first compound 1 µM
[33] = second compound 1 µM, first compound 3.16 µM
[34] = second compound 1 µM, first compound 10 µM
[35] = second compound 3.16 µM, first compound 0.316 µM
[36] = second compound 3.16 µM, first compound 1 µM
[37] = second compound 3.16 µM, first compound 3.16 µM
[38] = second compound 3.16 µM, first compound 10 µM
[39] = second compound 10 µM, first compound 0.316 µM
[40] = second compound 10 µM, first compound 1 µM
[41] = second compound 10 µM, first compound 3.16 µM
[42] = second compound 10 µM, first compound 10 µM
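Note: spheroids exposed to the compounds for 7 days.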
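Throughout, for viability, T/C: 100% = DMSO vehicle control viability.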

Cn1ncnc1[C@H]1c2n[nH]c(=O)c3cc(F)cc(c23)N[C@@H]1c1ccc(F)cc1 + CN1CCN(c2cc(C(=O)Nc3cc4cc(-c5cnn(C)c5)ccc4cn3)ccn2)CC1
active: viability, T/C (second compound 1 µM, first compound 0.000316 µM) 0.34% | viability, T/C (second compound 1 µM, first compound 0.001 µM) 0.36% | viability, T/C (second compound 1 µM, first compound 0.00316 µM) 0.3% | viability, T/C (second compound 1 µM, first compound 0.01 µM) 0.19% | viability, T/C [13] 0.26% | viability, T/C [14] 0.38% | viability, T/C (second compound 3.16 µM, first compound 0.000316 µM) 0.15% | viability, T/C (second compound 3.16 µM, first compound 0.001 µM) 0.17% | viability, T/C (second compound 3.16 µM, first compound 0.00316 µM) 0.15% | viability, T/C (second compound 3.16 µM, first compound 0.01 µM) 0.18% | viability, T/C [15] 0.12% | viability, T/C [16] 0.29% | viability, T/C (second compound 10 µM, first compound 0.000316 µM) 0.11% | viability, T/C (second compound 10 µM, first compound 0.001 µM) 0.2% | viability, T/C (second compound 10 µM, first compound 0.00316 µM) 0.16% | viability, T/C (second compound 10 µM, first compound 0.01 µM) 0.18% | viability, T/C [17] 0.2% | viability, T/C [18] 0.2%
> 100 nM: IC50 [1]
91.4 nM: IC50 [2]
inactive: viability, T/C (second compound 0.0316 µM, first compound 0.000316 µM) 99.4% | viability, T/C (second compound 0.0316 µM, first compound 0.001 µM) 83.8% | viability, T/C (second compound 0.0316 µM, first compound 0.00316 µM) 80% | viability, T/C (second compound 0.0316 µM, first compound 0.01 µM) 89.2% | viability, T/C [7] 62.2% | viability, T/C [8] 68.2% | viability, T/C (second compound 0.1 µM, first compound 0.000316 µM) 83.9% | viability, T/C (second compound 0.1 µM, first compound 0.001 µM) 70.3% | viability, T/C (second compound 0.1 µM, first compound 0.00316 µM) 69.8% | viability, T/C (second compound 0.1 µM, first compound 0.01 µM) 66.6% | viability, T/C [9] 43.8% | viability, T/C [10] 53.8% | viability, T/C (second compound 0.316 µM, first compound 0.000316 µM) 17.1% | viability, T/C (second compound 0.316 µM, first compound 0.001 µM) 17.7% | viability, T/C (second compound 0.316 µM, first compound 0.00316 µM) 16.2% | viability, T/C (second compound 0.316 µM, first compound 0.01 µM) 11.9% | viability, T/C [11] 18.8% | viability, T/C [12] 15.2%
< 0.316 nM: IC50 [3] | IC50 [4] | IC50 [5] | IC50 [6]

CC(Nc1ccc2c(c1)OCCn1cc(N3C(=O)OCC3C(F)F)nc1-2)C(N)=O (configuration not stated)
82.4 nM: IC50 (curve of compound)
inactive: viability, T/C (compound 0.0316 µM) 89.2% | viability, T/C (compound 0.1 µM) 38.7% | viability, T/C (compound 0.316 µM) 28.3% | viability, T/C (compound 1 µM) 23.4% | viability, T/C (compound 3.16 µM) 13.5% | viability, T/C (compound 10 µM) 13.2%

C=C(F)C(=O)N1CCN(c2nc(OCC3CCCN3C)nc3c2CCN(c2cccc4cccc(Cl)c24)C3)CC1CC#N (configuration not stated) + CN1CCN(c2cc(C(=O)Nc3cc4cc(-c5cnn(C)c5)ccc4cn3)ccn2)CC1
2800 nM: IC50 [2]
inactive: viability, T/C [7] 99.9% | viability, T/C [8] 85.3% | viability, T/C [19] 92% | viability, T/C [20] 93.2% | viability, T/C [21] 60.8% | viability, T/C [22] 15.7% | viability, T/C [9] 69.1% | viability, T/C [10] 70% | viability, T/C [23] 75% | viability, T/C [24] 62% | viability, T/C [25] 48.8% | viability, T/C [11] 16.7% | viability, T/C [12] 17.8% | viability, T/C [27] 22.6% | viability, T/C [28] 16.4% | viability, T/C [29] 23.8% | viability, T/C [30] 0.16%
active: viability, T/C [26] 4.16% | viability, T/C [13] 0.51% | viability, T/C [14] 0.57% | viability, T/C [31] 2.72% | viability, T/C [32] 0.61% | viability, T/C [33] 0.21% | viability, T/C [34] 0.13% | viability, T/C [15] 0.32% | viability, T/C [16] 0.27% | viability, T/C [35] 0.26% | viability, T/C [36] 0.45% | viability, T/C [37] 1.88% | viability, T/C [38] 0.15% | viability, T/C [17] 0.24% | viability, T/C [18] 0.24% | viability, T/C [39] 2.62% | viability, T/C [40] 0.28% | viability, T/C [41] 0.53% | viability, T/C [42] 0.23%
4160 nM: IC50 [1]
< 31.6 nM: IC50 [3] | IC50 [4] | IC50 [5] | IC50 [6]

C=CC(=O)N1CCN(c2nc(=O)n(-c3c(C)ccnc3C(C)C)c3nc(-c4c(O)cccc4F)c(F)cc23)C(C)C1 (configuration not stated) + CNC(=O)c1ccc(Nc2nc(OC3CCCC3)c3c(-c4ccc5nc(C)oc5c4)c[nH]c3n2)c(OC)c1
inactive: viability, T/C [7] 99.7% | viability, T/C [8] 82.6% | viability, T/C [19] 96.6% | viability, T/C [20] 108% | viability, T/C [21] 124% | viability, T/C [22] 103% | viability, T/C [9] 82.7% | viability, T/C [10] 91.5% | viability, T/C [23] 90.3% | viability, T/C [24] 92.1% | viability, T/C [25] 101% | viability, T/C [26] 88% | viability, T/C [11] 50.4% | viability, T/C [12] 59.7% | viability, T/C [27] 56.9% | viability, T/C [28] 53.4% | viability, T/C [29] 59% | viability, T/C [30] 58.3% | viability, T/C [13] 40.6% | viability, T/C [14] 47.7% | viability, T/C [31] 36.3% | viability, T/C [32] 46.1% | viability, T/C [33] 41.2% | viability, T/C [34] 40.6% | viability, T/C [15] 42.8% | viability, T/C [16] 39.2% | viability, T/C [35] 41.1% | viability, T/C [36] 45.2% | viability, T/C [37] 53% | viability, T/C [38] 36.4% | viability, T/C [17] 31.3% | viability, T/C [18] 33.5% | viability, T/C [39] 35.4% | viability, T/C [40] 41% | viability, T/C [41] 40% | viability, T/C [42] 28.3%
> 10000 nM: IC50 [1] | IC50 [2] | IC50 [3]
< 31.6 nM: IC50 [4] | IC50 [5] | IC50 [6]

C=CC(=O)Nc1cc(Nc2nccc(-c3cn(C)c4ccccc34)n2)c(OC)cc1N(C)CCN(C)C
83.5 nM and 85.2 nM: IC50 (curve of compound)
inactive: viability, T/C (compound 0.000949 µM) 103% and 99.9% | viability, T/C (compound 0.003 µM) 99.5% and 112% | viability, T/C (compound 0.00949 µM) 81.5% and 83.4% | viability, T/C (compound 0.03 µM) 83.7% and 76.9% | viability, T/C (compound 0.0949 µM) 42.4% and 47.1% | viability, T/C (compound 0.3 µM) 24.2% and 20.6%

COc1ccc([C@@H](O)c2cc(-c3ncnc4cc(N5CCOCC5)ccc34)c(F)cc2Cl)nn1 + CN1CCN(c2cc(C(=O)Nc3cc4cc(-c5cnn(C)c5)ccc4cn3)ccn2)CC1
< 31.6 nM: IC50 [3] | IC50 [4] | IC50 [5] | IC50 [6]
inactive: viability, T/C [7] 83.6% | viability, T/C [8] 77.9% | viability, T/C [19] 74.9% | viability, T/C [20] 70.4% | viability, T/C [21] 36.1% | viability, T/C [22] 32.6% | viability, T/C [9] 71% | viability, T/C [10] 62.7% | viability, T/C [23] 64.5% | viability, T/C [24] 48.8% | viability, T/C [25] 30.9% | viability, T/C [26] 30.3% | viability, T/C [11] 17.3% | viability, T/C [12] 12.2% | viability, T/C [27] 13.4% | viability, T/C [28] 9.3% | viability, T/C [29] 14.9% | viability, T/C [30] 13.4%
1990 nM: IC50 [1]
active: viability, T/C [13] 0.18% | viability, T/C [14] 0.23% | viability, T/C [31] 2.66% | viability, T/C [32] 0.22% | viability, T/C [33] 0.24% | viability, T/C [34] 0.33% | viability, T/C [15] 0.22% | viability, T/C [16] 0.16% | viability, T/C [35] 3.99% | viability, T/C [36] 0.25% | viability, T/C [37] 0.23% | viability, T/C [38] 0.35% | viability, T/C [17] 0.06% | viability, T/C [18] 0.15% | viability, T/C [39] 2.92% | viability, T/C [40] 0.15% | viability, T/C [41] 0.22% | viability, T/C [42] 3.6%
899 nM: IC50 [2]
